Assay results reported in patent publication US7452865B2, “Antagonistic analogs of GH RH (2003)” (The Administrare's of the Tulane Educational Fund, priority 2004, dated 2008).
Marks after values point to notes of the source that are not given here. Blank lines part the entries; values can stand above or below the compound they belong to. Square brackets hold non-standard residues; d marks the D form. Peptide text beside a SMILES is read from it. * marks the point of attachment. Phe(4-Cl) = N[C@@H](Cc1ccc(Cl)cc1)C(=O)O; C14 diacid = O=C(O)CCCCCCCCCCCCC(=O)*; HOOC(CH2)8CO = O=C(O)CCCCCCCCC(=O)*; HOOC(CH2)6CO = O=C(O)CCCCCCC(=O)*; hArg = N=C(N)NCCCC[C@H](N)C(=O)O; Cit = NC(=O)NCCC[C@H](N)C(=O)O; Nle = CCCC[C@H](N)C(=O)O; Abu = CC[C@H](N)C(=O)O; PhAc = O=C(Cc1ccccc1)*

Tests used:
[1] = system: hGH-RH(1-29)NH2 induced GH release; assay: Inhibition of GH release in superfused rat pituitary system; format: cell-based; conditions: for GH response (% of control) 0 min / GH response (% of control) 30 min / GH response (% of control) 60 min / GH response (% of control) 90 min / GH response (% of control) 120 min: antagonist 30 nM; for GH response (% of control) 0 min: 1 nM hGH-RH(1-29)NH2 at 0 min; for GH response (% of control) 30 min: 1 nM hGH-RH(1-29)NH2 at 30 min; for GH response (% of control) 60 min: 1 nM hGH-RH(1-29)NH2 at 60 min; for GH response (% of control) 90 min: 1 nM hGH-RH(1-29)NH2 at 90 min; for GH response (% of control) 120 min: 1 nM hGH-RH(1-29)NH2 at 120 min; for endocrine antagonistic potency: inhibition of the GH release stimulated by hGH-RH(1-29)NH2 (in words): general statement, in vitro and in vivo
Outline: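 Dispersed rat pituitary cells in superfusion were preincubated 9 min with analog at various concentrations, then stimulated with 1 nM hGH-RH(1-29)NH2 for 3 min, repeated at 30, 60, 90, 120 min to gauge duration. GH measured by double-antibody RIA; net integrated responses expressed as percent of the initial 1 nM GH-RH response.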

[2] = system: GH-RH receptor isoforms on membrane fractions of human PC-3 prostate tumors; format: binding; conditions: for binding affinities to the tumoral receptors for GH-RH (in words): general statement
From the text: Ligand competition assays with ^125I-labeled GH-RH antagonist JV-1-42 were used to determine the binding affinities of GH-RH analogs to the GH-RH receptor isoforms on membrane fractions of human PC-3 prostate tumors. The methods used have been described in detail (Halmos G, Schally A V, Varga J L, Plonowski A, Rekasi Z, Czompoly T, Proc Natl Acad Sci USA 97: 10555-10560, 2000; Halmos G, Schally A V, Czompoly T, Krupa M, Varga J L, Rekasi Z, J Clin Endocrinol Metab 87: 4707-4714, 2002), hereby incorporated by reference. Briefly, radioiodinated derivatives of JV-142 are prepared by the chloramine-T method. PC-3 tumors, grown as xenografts in nude mice, are used to prepare crude membranes. PC-3 membrane homogenates are incubated with [^125I]JV-142 and increasing concentrations (10^−12 to 10^−6 M) of nonradioactive antagonist peptides as competitors. The pellet is separated by centrifugation and counted for radioactivity in a gamma-counter. The final binding affinities are estimated by K1 (dissociation constant of the inhibitor-receptor complex) and are determined by the Ligand PC and McPherson computer programs of Munson and Rodbard (P. J. Munson and D. Rodbard, Anal. Biochem. […]: 220-239, 1980). Relative affinities (R.A.) compared to reference peptides such as JV-1-36 or JV-1-38, are calculated as the ratio of K1 of the reference peptide to the K, of the tested GH-RH antagonist.

[3] = system: PC-3 human prostate cancer xenografts; assay: PC-3 xenografts in nude mice, Experiment 3: tumor growth; format: in vivo
Protocol: Male nude mice were implanted s.c. with 3 mm^3 pieces of PC-3 human hormone-independent prostate cancer tissue on both flanks. When tumors reached a volume of approximately 65 mm^3, the mice were divided into 7 experimental groups with 8 to 9 animals in each group and received single daily injections for 28 days as follows: 1. Control (vehicle solution); 2. JV-1-38 (10 μg/day s.c.); 3. Peptide 35 (10 μg/day s.c.); 4. Peptide 36 (10 μg/day s.c.); 5. Peptide 37 (10 μd/day s.c.); 6. Peptide 39 (10 μg/day s.c.); 7. Peptide 41 (10 μg/day s.c.). Tumor volumes were measured twice a week. The experiment was ended on day 28 by sacrificing the mice under Isofurane anesthesia. Resulting tumors were cleaned, weighed, and snapfrozen until further analyses. Trunk blood was collected from the abdominal aorta and serum was separated for RIA measurement of IGF-I. Statistical analyses of the measurement results were done by ANOVA followed by Fisher test; data are presented as the means±S.E.

[4] = 10 μg/day s.c., 28 days, vs control

Compound: [PhAc-Tyr^1, D-Arg^2, Phe(pCl)^6, Har^9, Phe(pNH2)^10, Abu^15, Nle^27, D-Arg^28, Har^29]hGH-RH(1-29)NH2 [Peptide 37]
GH response (% of control) 0 min [1]: 33 % of control
GH response (% of control) 30 min [1]: 12 % of control
GH response (% of control) 60 min [1]: 15 % of control
GH response (% of control) 90 min [1]: 15 % of control
GH response (% of control) 120 min [1]: 19 % of control
endocrine antagonistic potency: inhibition of the GH release stimulated by hGH-RH(1-29)NH2 (in words) [1]: high endocrine antagonistic potencies
Tumor volume (mm^3) Final ([3]; 10 μg/day s.c., 28 days): 323 ± 68.0* mm^3
Tumor volume doubling time ([3]; 10 μg/day s.c., 28 days): 12.7 ± 2.03 days
Tumor weight ([3]; 10 μg/day s.c., 28 days): 440 ± 104 mg
Tumor volume Final (% inhibition) [3, 4]: (57%)
Tumor weight (% inhibition) [3, 4]: (37%)
Tumor volume (mm^3) Initial ([3]; at start of treatment): 60.0 ± 13.0 mm^3

Compound: CCCC[C@H](NC(=O)[C@@H](NC(=O)[C@H](CC(=O)O)NC(=O)[C@H](CCC(N)=O)NC(=O)[C@H](CC(C)C)NC(=O)[C@H](CC(C)C)NC(=O)[C@H](CCCCN)NC(=O)[C@H](CCCNC(=N)N)NC(=O)[C@H](C)NC(=O)[C@H](CO)NC(=O)[C@H](CC(C)C)NC(=O)[C@H](CCC(N)=O)NC(=O)[C@H](CC)NC(=O)[C@H](CC(C)C)NC(=O)[C@@H](NC(=O)[C@H](CCCCN)NC(=O)[C@H](CCCNC(=N)N)NC(=O)[C@H](Cc1ccc(O)cc1)NC(=O)[C@H](CCCNC(N)=O)NC(=O)[C@H](CCCNC(N)=O)NC(=O)[C@@H](NC(=O)[C@H](Cc1ccc(Cl)cc1)NC(=O)[C@@H](NC(=O)[C@H](C)NC(=O)[C@H](CC(=O)O)NC(=O)[C@@H](CCCNC(=N)N)NC(=O)[C@H](Cc1ccc(O)cc1)NC(=O)Cc1ccccc1)[C@@H](C)CC)[C@@H](C)O)C(C)C)[C@@H](C)CC)C(=O)N[C@H](CCCNC(=N)N)C(=O)N[C@@H](CCCCNC(=N)N)C(N)=O [Peptide 22, [PhAc-Tyr^1, D-Arg^2, Phe(pCl)^6, Cit^8, Cit^9, Abu^15, Nle^27, D-Arg^28, Har^29]hGH-RH(1-29)NH2] (PhAc-Y[dR]DAI[Phe(4-Cl)]T[Cit][Cit]YRKVL[Abu]QLSARKLLQDI[Nle][dR][hArg]-NH2)
GH response (% of control) 0 min [1]: 22 % of control
GH response (% of control) 30 min [1]: 26 % of control
GH response (% of control) 60 min [1]: 27 % of control
GH response (% of control) 90 min [1]: 45 % of control
binding affinities to the tumoral receptors for GH-RH (in words) [2]: extremely high binding affinities

Compound: CCCC[C@H](NC(=O)[C@@H](NC(=O)[C@H](CC(=O)O)NC(=O)[C@H](CCC(N)=O)NC(=O)[C@H](CC(C)C)NC(=O)[C@H](CC(C)C)NC(=O)[C@H](CCCCN)NC(=O)[C@H](CCCNC(=N)N)NC(=O)[C@H](C)NC(=O)[C@H](CO)NC(=O)[C@H](CC(C)C)NC(=O)[C@H](CCC(N)=O)NC(=O)[C@H](CC)NC(=O)[C@H](CC(C)C)NC(=O)[C@@H](NC(=O)[C@H](CCCCN)NC(=O)[C@H](CCCNC(=N)N)NC(=O)[C@H](Cc1ccc(O)cc1)NC(=O)[C@H](CCCNC(=N)N)NC(=O)[C@H](CC(N)=O)NC(=O)[C@@H](NC(=O)[C@H](Cc1ccc(Cl)cc1)NC(=O)[C@@H](NC(=O)[C@H](C)NC(=O)[C@H](CC(=O)O)NC(=O)[C@@H](CCCNC(=N)N)NC(=O)[C@H](Cc1ccc(O)cc1)NC(=O)CCCCCCC(=O)O)[C@@H](C)CC)[C@@H](C)O)C(C)C)[C@@H](C)CC)C(=O)N[C@H](CCCNC(=N)N)C(=O)N[C@@H](CCCCNC(=N)N)C(N)=O [Peptide 5, [HOOC(CH2)6CO-Tyr^1, D-Arg^2, Phe(pCl)^6, Arg^9, Abu^15, Nle^27, D-Arg^28, Har^29]hGH-RH(1-29)NH2] ({HOOC(CH2)6CO}-Y[dR]DAI[Phe(4-Cl)]TNRYRKVL[Abu]QLSARKLLQDI[Nle][dR][hArg]-NH2)
GH response (% of control) 0 min [1]: 22 % of control
GH response (% of control) 30 min [1]: 20 % of control
GH response (% of control) 60 min [1]: 23 % of control
GH response (% of control) 90 min [1]: 27 % of control
GH response (% of control) 120 min [1]: 27 % of control
Relative Affinities (R.A.) to membrane receptors on PC-3 human prostate cancers [2]: 4
binding affinities to the tumoral receptors for GH-RH (in words) [2]: extremely high binding affinities

Compound: [CH3(CH2)6CO-Tyr^1, D-Arg^2, Phe(pCl)^6, Ala^8, His^9, Tyr(Et)^10, His^11, Abu^15, Nle^27, D-Arg^28, Har^29]hGH-RH(1-29)NHEt [Peptide 97]
binding affinities to the tumoral receptors for GH-RH (in words) [2]: extremely high binding affinities

Further lines, with some results ahead:

Relative Affinities (R.A.) to membrane receptors on PC-3 human prostate cancers [2]: 1.3
binding affinities to the tumoral receptors for GH-RH (in words) [2]: extremely high binding affinities
Compound: CCCC[C@H](NC(=O)[C@@H](NC(=O)[C@H](CC(=O)O)NC(=O)[C@H](CCC(N)=O)NC(=O)[C@H](CC(C)C)NC(=O)[C@H](CC(C)C)NC(=O)[C@H](CCCCN)NC(=O)[C@H](CCCNC(=N)N)NC(=O)[C@H](C)NC(=O)[C@H](CO)NC(=O)[C@H](CC(C)C)NC(=O)[C@H](CCC(N)=O)NC(=O)[C@H](CC)NC(=O)[C@H](CC(C)C)NC(=O)[C@@H](NC(=O)[C@H](CCCCN)NC(=O)[C@H](CCCNC(=N)N)NC(=O)[C@H](Cc1ccc(O)cc1)NC(=O)[C@H](CCCNC(=N)N)NC(=O)[C@H](CC(N)=O)NC(=O)[C@@H](NC(=O)[C@H](Cc1ccc(Cl)cc1)NC(=O)[C@@H](NC(=O)[C@H](C)NC(=O)[C@H](CC(=O)O)NC(=O)[C@@H](CCCNC(=N)N)NC(=O)[C@H](Cc1ccc(O)cc1)NC(=O)CCCCCCCCCCCCC(=O)O)[C@@H](C)CC)[C@@H](C)O)C(C)C)[C@@H](C)CC)C(=O)N[C@H](CCCNC(=N)N)C(=O)N[C@@H](CCCCNC(=N)N)C(N)=O [Peptide 11, [HOOC(CH2)12CO-Tyr^1, D-Arg^2, Phe(pCl)^6, Arg^9, Abu^15, Nle^27, D-Arg^28, Har^29]hGH-RH(1-29)NH2] ({C14 diacid}-Y[dR]DAI[Phe(4-Cl)]TNRYRKVL[Abu]QLSARKLLQDI[Nle][dR][hArg]-NH2)
GH response (% of control) 0 min [1]: 14 % of control
GH response (% of control) 30 min [1]: 24 % of control
GH response (% of control) 60 min [1]: 29 % of control
GH response (% of control) 90 min [1]: 34 % of control
GH response (% of control) 120 min [1]: 32 % of control

Relative Affinities (R.A.) to membrane receptors on PC-3 human prostate cancers [2]: 12
binding affinities to the tumoral receptors for GH-RH (in words) [2]: extremely high binding affinities
Compound: CCCC[C@H](NC(=O)[C@@H](NC(=O)[C@H](CC(=O)O)NC(=O)[C@H](CCC(N)=O)NC(=O)[C@H](CC(C)C)NC(=O)[C@H](CC(C)C)NC(=O)[C@H](CCCCN)NC(=O)[C@H](CCCNC(=N)N)NC(=O)[C@H](C)NC(=O)[C@H](CO)NC(=O)[C@H](CC(C)C)NC(=O)[C@H](CCC(N)=O)NC(=O)[C@H](CC)NC(=O)[C@H](CC(C)C)NC(=O)[C@@H](NC(=O)[C@H](CCCCN)NC(=O)[C@H](CCCNC(=N)N)NC(=O)[C@H](Cc1ccc(O)cc1)NC(=O)[C@H](CCCNC(=N)N)NC(=O)[C@H](CC(N)=O)NC(=O)[C@@H](NC(=O)[C@H](Cc1ccc(Cl)cc1)NC(=O)[C@@H](NC(=O)[C@H](C)NC(=O)[C@H](CC(=O)O)NC(=O)[C@@H](CCCNC(=N)N)NC(=O)[C@H](Cc1ccc(O)cc1)NC(=O)CCCCCCCCC(=O)O)[C@@H](C)CC)[C@@H](C)O)C(C)C)[C@@H](C)CC)C(=O)N[C@H](CCCNC(=N)N)C(=O)N[C@@H](CCCCNC(=N)N)C(N)=O [Peptide 7, [HOOC(CH2)8CO-Tyr^1, D-Arg^2, Phe(pCl)^6, Arg^9, Abu^15, Nle^27, D-Arg^28, Har^29]hGH-RH(1-29)NH2] ({HOOC(CH2)8CO}-Y[dR]DAI[Phe(4-Cl)]TNRYRKVL[Abu]QLSARKLLQDI[Nle][dR][hArg]-NH2)
GH response (% of control) 0 min [1]: 23 % of control
GH response (% of control) 30 min [1]: 13 % of control
GH response (% of control) 60 min [1]: 11 % of control
GH response (% of control) 90 min [1]: 14 % of control
GH response (% of control) 120 min [1]: 14 % of control
endocrine antagonistic potency: inhibition of the GH release stimulated by hGH-RH(1-29)NH2 (in words) [1]: high endocrine antagonistic potencies
